“And” between values parts separate entries of the source, which are not always exact repeats. Equal values may be shown once. ± gives the expanded uncertainty stated by the source.
Details: Liquid, Transpiration method

CCCCCCC(CO)CCCC (stereo unspecified) [2-butyl-1-octanol]
vapor or sublimation pressure (308.1 K): 0.00112 ± 8e-05 kPa | vapor or sublimation pressure (312.9 K): 0.00195 ± 0.00013 kPa | vapor or sublimation pressure (317.8 K): 0.00325 ± 0.00022 kPa | vapor or sublimation pressure (322.7 K): 0.00526 ± 0.00038 kPa | vapor or sublimation pressure (327.6 K): 0.00824 ± 0.00057 kPa | vapor or sublimation pressure (332.5 K): 0.01315 ± 0.00087 kPa | vapor or sublimation pressure (337.5 K): 0.02027 ± 0.0013 kPa | vapor or sublimation pressure (342.6 K): 0.03024 ± 0.0019 kPa | vapor or sublimation pressure (347.6 K): 0.0452 ± 0.0029 kPa | vapor or sublimation pressure (352.6 K): 0.06767 ± 0.0043 kPa

CCCCCCOC(=O)CCCCC [hexanoic acid, hexyl ester]
vapor or sublimation pressure (298.4 K): 0.00313 ± 0.00021 kPa | vapor or sublimation pressure (303.2 K): 0.0049 ± 0.00032 kPa | vapor or sublimation pressure (308 K): 0.00732 ± 0.00051 kPa | vapor or sublimation pressure (312.8 K): 0.01166 ± 0.00079 kPa and 0.01116 ± 0.00074 kPa | vapor or sublimation pressure (317.7 K): 0.01667 ± 0.0011 kPa | vapor or sublimation pressure (322.6 K): 0.0257 ± 0.0017 kPa | vapor or sublimation pressure (327.5 K): 0.03605 ± 0.0023 kPa | vapor or sublimation pressure (332.4 K): 0.05276 ± 0.0034 kPa | vapor or sublimation pressure (337.3 K): 0.07541 ± 0.0048 kPa | vapor or sublimation pressure (342.3 K): 0.1055 ± 0.0066 kPa | vapor or sublimation pressure (347.3 K): 0.1426 ± 0.0089 kPa and 0.1453 ± 0.0091 kPa

Source: the NIST ThermoML archive (doi:10.1021/acs.jced.9b00419)
